From patent US20170266218A1, “NAD+ COENZYME FORMULATION AND METHODS OF MAKING AND USING THE SAME” (Steve McNerlin, priority 2016, published 2017)

What was measured:
[1] = Applicant's finding on therapeutic activity of NAD+ versus NADH for the disclosed uses
Text: As such, Applicant believes NAD+ alone is responsible for the activities disclosed herein. […] Applicant therefore defines NADH as having a negative net NAD+ value.

[2] = system: hair growth (follicular stimulation; SIRT1 enzyme); assay: Database trial: weekly scalp micro injections of SIRT1 activator (NAD+), hair growth followed by trichoscan; assay type: in vivo, human
Method: All six patients underwent weekly micro injections to the subcutaneous fatty layer of the affected layer of the scalp using 4 ml of a SIRT1 Activator (NAD+) over a 24 week period using a commercially available Biophymed CE certified U225 mesotherapy device. The SIRT 1 activator was specially prepared from our written protocol.
Patients were followed for safety and tolerability as well as for monitoring differences in hair growth. In order to track progress over time, we employed global photography, and a 60 second patient observational assessment tool based on a standardized 60 second hair count protocol, haircount and trichoscan analysis (Fotofinder); Trichoscan analysis allows us to quantitatively track the following parameters: hair count, hair density, anagen/telogen rates, along with cumulative hair thickness Patients were asked to return to the clinic at 6 weeks, 12 weeks after the intervention.

[3] = cited from earlier work

Structure (SMILES) | therapeutic effectiveness for the uses disclosed [1] | average increase in hair count ([2]; 12 week trichoscan parameters, six patients, weekly micro injections of 4 ml to subcutaneous fatty layer of scalp) [%] | preliminary results of hair growth trial ([2]; overall conclusion of the trial) | stability of solutions ([3]; 4° C. and neutral pH) | stability of solutions in acids or alkalis ([3]; acids or alkalis)
NC(=O)c1ccc[n+]([C@@H]2O[C@H](COP(=O)([O-])OP(=O)(O)OC[C@H]3O[C@@H](n4cnc5c(N)ncnc54)[C@H](O)[C@@H]3O)[C@@H](O)[C@H]2O)c1 [NAD+, Nicotinamide adenine dinucleotide] | therapeutically effective | 21 | statistically significant and positive | stable for about a week | decompose rapidly
NC(=O)C1=CN([C@@H]2O[C@H](COP(=O)(O)OP(=O)(O)OC[C@H]3O[C@@H](n4cnc5c(N)ncnc54)[C@H](O)[C@@H]3O)[C@@H](O)[C@H]2O)C=CC1 [NADH, reference compound] | entirely inactive | – | – | – | –
